Where a name gives a salt, the structure may show the parent alone.
Molecular target: GCN2 (Homo sapiens, UniProt Q9P2K8)
Assay: GCN2 enzyme assay (TR-FRET Lanthascreen, GFP-eIF2alpha phosphorylation)
Type: biochemical
Settings: 10 μM ATP, 80 nM GFP-eIF2a substrate, 30 nM GCN2, room temperature
From the text: GCN2: Assay Principle & Conditions
This assay can quantificate the activity of the serin kinase GCN2 (general control non-derepressible-2).
This kinase is involved in the stress metabolism of cells. It is activated upon starvation (amino acid depletion). Its natural substrate is eIF2a (eukaryotic initiation factor 2 alpha subunit), a translation factor, which gets activated (phosphorylated) by GCN2 in case of an amino acid bottleneck in the cells. This in turn leads to a halt of the protein synthesis. Inhibition of GCN2 results in stopping this mechanism: The cell can not stop protein production upon “starvation” stress.
The assay is run in two steps: the enzymatic reaction and the detection step. In the first step GCN2 is incubated with 10 μM ATP and 80 nM of the GFP-labelled substrate elF2alpha at room temperature.
The enzymatic reaction is stopped by addition of EDTA. The amount of phosphorylated elF2alpha is determined by TR-FRET (Lanthascreen): A complex is formed consisting of antibody and GFP labelled phospho-eIF2a, which allows a FRET upon exitation at 340 nm.
Final Concentrations in the Enzymatic Reaction

Chain of GCN2 (Q9P2K8 whole entry, species assumed): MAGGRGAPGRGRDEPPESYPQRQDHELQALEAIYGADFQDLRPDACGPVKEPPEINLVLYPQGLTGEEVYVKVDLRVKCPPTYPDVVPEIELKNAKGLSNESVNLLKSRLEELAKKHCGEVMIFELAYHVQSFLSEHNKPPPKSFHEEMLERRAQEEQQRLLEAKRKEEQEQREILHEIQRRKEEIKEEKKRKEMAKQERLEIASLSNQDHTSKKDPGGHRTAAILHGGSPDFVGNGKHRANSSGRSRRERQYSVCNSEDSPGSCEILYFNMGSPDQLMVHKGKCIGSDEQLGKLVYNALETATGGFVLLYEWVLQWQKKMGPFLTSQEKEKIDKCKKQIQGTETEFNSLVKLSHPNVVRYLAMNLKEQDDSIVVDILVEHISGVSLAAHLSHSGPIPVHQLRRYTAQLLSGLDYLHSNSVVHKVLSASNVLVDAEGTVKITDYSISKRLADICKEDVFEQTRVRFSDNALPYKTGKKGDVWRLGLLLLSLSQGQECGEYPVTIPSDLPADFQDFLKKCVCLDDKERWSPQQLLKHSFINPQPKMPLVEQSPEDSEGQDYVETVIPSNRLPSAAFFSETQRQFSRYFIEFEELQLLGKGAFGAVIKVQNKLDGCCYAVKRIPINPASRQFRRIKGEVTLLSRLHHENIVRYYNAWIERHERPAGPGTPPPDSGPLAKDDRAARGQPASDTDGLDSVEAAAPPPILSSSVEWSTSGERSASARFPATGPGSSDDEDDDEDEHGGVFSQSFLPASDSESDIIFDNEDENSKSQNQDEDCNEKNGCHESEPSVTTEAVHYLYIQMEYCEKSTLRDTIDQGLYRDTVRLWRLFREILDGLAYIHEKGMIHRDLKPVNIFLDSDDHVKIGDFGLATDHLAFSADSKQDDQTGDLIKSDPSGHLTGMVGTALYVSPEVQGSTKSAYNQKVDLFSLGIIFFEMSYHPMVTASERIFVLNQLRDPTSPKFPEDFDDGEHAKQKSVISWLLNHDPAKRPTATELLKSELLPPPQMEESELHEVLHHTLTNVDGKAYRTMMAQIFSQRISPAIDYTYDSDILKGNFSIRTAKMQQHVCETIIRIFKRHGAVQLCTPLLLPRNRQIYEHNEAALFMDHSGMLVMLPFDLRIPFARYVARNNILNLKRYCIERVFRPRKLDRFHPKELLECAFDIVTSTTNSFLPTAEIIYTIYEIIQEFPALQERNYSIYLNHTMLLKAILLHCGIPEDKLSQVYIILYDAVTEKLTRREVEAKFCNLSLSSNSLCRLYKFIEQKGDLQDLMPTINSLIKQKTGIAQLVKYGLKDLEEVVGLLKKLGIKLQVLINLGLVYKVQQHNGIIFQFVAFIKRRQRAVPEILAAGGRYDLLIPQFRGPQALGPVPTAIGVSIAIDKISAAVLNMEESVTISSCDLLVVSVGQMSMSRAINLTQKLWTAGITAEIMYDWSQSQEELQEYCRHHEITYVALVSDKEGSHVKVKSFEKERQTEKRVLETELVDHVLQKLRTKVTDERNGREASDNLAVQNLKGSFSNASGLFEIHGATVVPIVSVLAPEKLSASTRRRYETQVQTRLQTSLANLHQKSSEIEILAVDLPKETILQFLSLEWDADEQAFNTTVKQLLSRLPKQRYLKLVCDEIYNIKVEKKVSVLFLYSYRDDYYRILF

IC50	SMILES
5000 to 10000 nM	O[C@H]1CC[C@H](Nc2ncc3ncn(-c4ccc(I)c(F)c4)c3n2)C1 (relative stereo) [Compound A27, (trans)-3-[9-(3-fluoro-4-iodo-phenyl)-9H-purin-2-ylamino]-cyclopentanol]
1000 to 5000 nM	COCCn1cc(-c2ccc(-n3cnc4cnc(N[C@H]5CC[C@H](O)C5)nc43)cc2F)cn1 (relative stereo) [Compound A29, (trans)-3-(9-{3-fluoro-4-[1-(2-methoxy-ethyl)-1H-pyrazol-4-yl]-phenyl}-9H-purin-2-ylamino)-cyclopentanol]
1000 to 5000 nM	Cn1cc(-c2ccc(-n3cnc4cnc(N[C@@H]5CC[C@@H](O)C5)nc43)cc2)cn1 (relative stereo) [Compound A30, (trans)-3-{9-[4-(1-Methyl-1H-pyrazol-4-yl)-phenyl]-9H-purin-2-ylamino}-cyclopentanol]
< 1000 nM	CCOc1ccc(-n2cnc3cnc(Nc4cnn(C5CCN(C)CC5)c4)nc32)cc1 [Compound A1, 9-(4-ethoxyphenyl)-N-(1-(1-methylpiperidin-4-yl)-1H-pyrazol-4-yl)-9H-purin-2-amine]
< 1000 nM	COCCOc1ccc(-n2cnc3cnc(Nc4cnn(C5CCN(C)CC5)c4)nc32)cc1 [Compound A2, 9-(4-(2-methoxyethoxy)phenyl)-N-(1-(1-methylpiperidin-4-yl)-1H-pyrazol-4-yl)-9H-purin-2-amine]
< 1000 nM	NC(=O)c1ccc(-n2cnc3cnc(Nc4cnn(C5CCOCC5)c4)nc32)cc1 [Compound A3, 4-(2-((1-(tetrahydro-2H-pyran-4-yl)-1H-pyrazol-4-yl)amino)-9H-purin-9-yl)benzamide]
< 1000 nM	CCn1cc(Nc2ncc3ncn(-c4cnn(CC)c4)c3n2)cn1 [Compound A4, N,9-bis-(1-ethyl-1H-pyrazol-4-yl)-9H-purin-2-amine]
< 1000 nM	CCn1cc(-n2cnc3cnc(Nc4cnn(C5CCOCC5)c4)nc32)cn1 [Compound A5, 9-(1-ethyl-1H-pyrazol-4-yl)-N-(1-(tetrahydro-2H-pyran-4-yl)-1H-pyrazol-4-yl)-9H-purin-2-amine]
1000 to 5000 nM	CCOc1ccc(-n2c(C)nc3cnc(Nc4cnn(C5CCN(C)CC5)c4)nc32)cc1 [Compound A6, 9-(4-ethoxyphenyl)-8-methyl-N-(1-(1-methylpiperidin-4-yl)-1H-pyrazol-4-yl)-9H-purin-2-amine]
< 1000 nM	CCn1cc(Nc2ncc3ncn(-c4ccc5c(c4)NC(=O)C5(C)C)c3n2)cn1 [Compound A9, 6-(2-((1-ethyl-1H-pyrazol-4-yl)amino)-9H-purin-9-yl)-3,3-dimethylindolin-2-one]
< 1000 nM	CCOc1ccc(-n2cnc3cnc(Nc4cnn(CCn5cccn5)c4)nc32)cc1 [Compound A10, N-(1-(2-(1H-pyrazol-1-yl)ethyl)-1H-pyrazol-4-yl)-9-(4-ethoxyphenyl)-9H-purin-2-amine]
< 1000 nM	CCOc1ccc(-n2cnc3cnc(Nc4cnn(CCCC5CCNCC5)c4)nc32)cc1 [Compound A11, 9-(4-ethoxyphenyl)-N-(1-(3-(piperidin-4-yl)propyl)-1H-pyrazol-4-yl)-9H-purin-2-amine hydrochloride]
< 1000 nM	Fc1cc(-n2cnc3cnc(Nc4cnn(C5CCOCC5)c4)nc32)ccc1Cl [Compound A12, 9-(4-chloro-3-fluorophenyl)-N-(1-(tetrahydro-2H-pyran-4-yl)-1H-pyrazol-4-yl)-9H-purine-2-amine]
< 1000 nM	COCCN1CCC(n2cc(Nc3ncc4ncn(-c5ccc(OC)cc5)c4n3)cn2)CC1 [Compound A13, N-(1-(1-(2-methoxyethyl)piperidin-4-yl)-1H-pyrazol-4-yl)-9-(4-methoxyphenyl)-9H-purin-2-amine]
< 1000 nM	COc1ccc(-n2cnc3cnc(Nc4cnn(C5CCN(C)CC5)c4)nc32)cc1 [Compound A16, 9-(4-methoxyphenyl)-N-(1-(1-methylpiperidin-4-yl)-1H-pyrazol-4-yl)-9H-purin-2-amine]
< 1000 nM	CCOc1ccc(-n2cnc3cnc(Nc4cnn(C5CCC(N)CC5)c4)nc32)cc1 (stereo not shown) [Compound A17, N-(1-(4-aminocyclohexyl)-1H-pyrazol-4-yl)-9-(4-ethoxyphenyl)-9H-purin-2-amine hydrochloride]
< 1000 nM	COc1ccc(-n2cnc3cnc(Nc4cn[nH]c4)nc32)cc1 [Compound A18, [9-(4-methoxy-phenyl)-9H-purin-2-yl]-(1H-pyrazol-4-yl)-amine]

IC50	SMILES
1000 to 5000 nM	COc1ccc(-n2cnc3cnc(Nc4ccn(C)n4)nc32)cc1 [Compound A19, [9-(4-methoxy-phenyl)-9H-purin-2-yl]-(1-methyl-1H-pyrazol-3-yl)-amine]
5000 to 10000 nM	COc1ccc(-n2cnc3cnc(Nc4cnn(-c5ccccc5)c4)nc32)cc1 [Compound A20, [9-(4-methoxy-phenyl)-9H-purin-2-yl]-(1-phenyl-1H-pyrazol-4-yl)-amine]
< 1000 nM	Cn1cc(Nc2ncc3ncn(-c4ccc(-c5cnn(C)c5)cc4)c3n2)cn1 [Compound A21, (1-methyl-1H-pyrazol-4-yl)-{9-[4-(1-methyl-1H-pyrazol-4-yl)-phenyl]-9H-purin-2-yl}-amine]
1000 to 5000 nM	CCn1cc(Nc2ncc3ncn(-c4ccc(C(=O)NCC(O)CO)cc4)c3n2)cn1 (stereo not shown) [Compound A22, N-(2,3-dihydroxy-propyl)-4-[2-(1-ethyl-1H-pyrazol-4-ylamino)-purin-9-yl]-benzamide]
< 1000 nM	Cn1cc(Nc2ncc3ncn(-c4ccc(-c5cnn(C6CCNCC6)c5)cc4)c3n2)cn1 [Compound A23, (1-methyl-1H-pyrazol-4-yl)-{9-[4-(1-piperidin-4-yl-1H-pyrazol-4-yl)-phenyl]-9H-purin-2-yl}-amine]
1000 to 5000 nM	Cn1cc(Nc2ncc3nc(N)n(-c4ccc(-c5cnn(C)c5)cc4)c3n2)cn1 [Compound A24, N2-(1-methyl-1H-pyrazol-4-yl)-9-[4-(1-methyl-1H-pyrazol-4-yl)-phenyl]-9H-purine-2,8-diamine]
5000 to 10000 nM	CCn1cc(Nc2ncc3nc(N)n(-c4ccc(C(=O)NCCO)cc4)c3n2)cn1 [Compound A25, 4-[8-amino-2-(1-ethyl-1H-pyrazol-4-ylamino)-purin-9-yl]-N-(2-hydroxy-ethyl)-benzamide]
1000 to 5000 nM	Cn1cc(Nc2ncc3nc(N)n(-c4ccc(-c5cnn(C6CCNCC6)c5)cc4)c3n2)cn1 [Compound A26, N2-(1-methyl-1H-pyrazol-4-yl)-9-[4-(1-piperidin-4-yl-1H-pyrazol-4-yl)-phenyl]-9H-purine-2,8-diamine]
1000 to 5000 nM	NC(=O)[C@@H]1CC[C@@H](Nc2ncc3ncn(-c4ccc(I)c(F)c4)c3n2)C1 [Compound A31, (1R,3R)-3-[9-(3-fluoro-4-iodo-phenyl)-9H-purin-2-ylamino]-cyclopentanecarboxylic acid amide]
1000 to 5000 nM	CCOc1ccc(-n2cnc3cnc(N[C@@H]4CC[C@@H](C(N)=O)C4)nc32)cc1 [Compound A32, (1R,3R)-3-[9-(4-ethoxy-phenyl)-9H-purin-2-ylamino]-cyclopentanecarboxylic acid amide]
1000 to 5000 nM	NC(=O)[C@@H]1CC[C@@H](Nc2ncc3ncn(-c4ccc(I)cc4)c3n2)C1 [Compound A33, (1R,3R)-3-[9-(4-iodo-phenyl)-9H-purin-2-ylamino]-cyclopentanecarboxylic acid amide]
1000 to 5000 nM	COCCOc1ccc(-n2cnc3cnc(N[C@@H]4CC[C@@H](C(N)=O)C4)nc32)cc1 [Compound A34, (1R,3R)-3-{9-[4-(2-methoxy-ethoxy)-phenyl]-9H-purin-2-ylamino}-cyclopentanecarboxylic acid amide]
< 1000 nM	COCCn1cc(-c2ccc(-n3cnc4cnc(N[C@@H]5CC[C@@H](C(N)=O)C5)nc43)cc2F)cn1 [Compound A35, (1R,3R)-3-(9-{3-fluoro-4-[1-(2-methoxy-ethyl)-1H-pyrazol-4-yl]-phenyl}-9H-purin-2-ylamino)-cyclopentanecarboxylic acid amide]
< 1000 nM	CCOCCn1cc(-c2ccc(-n3cnc4cnc(N[C@@H]5CC[C@@H](C(N)=O)C5)nc43)cc2)cn1 [Compound A36, (1R,3R)-3-(9-{4-[1-(2-ethoxy-ethyl)-1H-pyrazol-4-yl]-phenyl}-9H-purin-2-ylamino)-cyclopentanecarboxylic acid amide]
< 1000 nM	Cc1ccc2cc(-n3cnc4cnc(N[C@@H]5CC[C@@H](C(N)=O)C5)nc43)ccc2n1 [Compound A37, (1R,3R)-3-[9-(2-methyl-quinolin-6-yl)-9H-purin-2-ylamino]-cyclopentanecarboxylic acid amide]
5000 to 10000 nM	COCCn1cc(-c2ccc(-n3cnc4cnc(N[C@@H]5CCNC5)nc43)cc2)cn1 [Compound A38, (9-{4-[1-(2-methoxy-ethyl)-1H-pyrazol-4-yl]-phenyl}-9H-purin-2-yl)-(R)-pyrrolidin-3-yl-amine]
1000 to 5000 nM	COCCn1cc(-c2ccc(-n3cnc4cnc(N[C@@H]5CCN(C(=O)CCN6CCN(C)CC6)C5)nc43)cc2)cn1 [Compound A39, 1-[(R)-3-(9-{4-[1-(2-methoxy-ethyl)-1H-pyrazol-4-yl]-phenyl}-9H-purin-2-ylamino)-pyrrolidin-1-yl]-3-(4-methyl-piperazin-1-yl)-propan-1-one]

From US9617266B2, “Imidazopyrimidine derivatives” (Merck Patent GmbH, priority 2013, dated 2017)
